Data: article PMC6152052, “Molecular Structure–Affinity Relationship of Flavonoids in Lotus Leaf (Nelumbo nucifera Gaertn.) on Binding to Human Serum Albumin and Bovine Serum Albumin by Spectroscopic Method” (Molecules : A Journal of Synthetic Chemistry and Natural …, 2017)
Read-outs that look alike come from different tables or passages of the source.

Columns and labels:
[1] = target: T1, bovine serum albumin (BSA) (Bos taurus, UniProt P02769); test: intrinsic fluorescence quenching, double-log plot; type: binding
T1 construct: gene ALB
T1 sequence (P02769 25-607): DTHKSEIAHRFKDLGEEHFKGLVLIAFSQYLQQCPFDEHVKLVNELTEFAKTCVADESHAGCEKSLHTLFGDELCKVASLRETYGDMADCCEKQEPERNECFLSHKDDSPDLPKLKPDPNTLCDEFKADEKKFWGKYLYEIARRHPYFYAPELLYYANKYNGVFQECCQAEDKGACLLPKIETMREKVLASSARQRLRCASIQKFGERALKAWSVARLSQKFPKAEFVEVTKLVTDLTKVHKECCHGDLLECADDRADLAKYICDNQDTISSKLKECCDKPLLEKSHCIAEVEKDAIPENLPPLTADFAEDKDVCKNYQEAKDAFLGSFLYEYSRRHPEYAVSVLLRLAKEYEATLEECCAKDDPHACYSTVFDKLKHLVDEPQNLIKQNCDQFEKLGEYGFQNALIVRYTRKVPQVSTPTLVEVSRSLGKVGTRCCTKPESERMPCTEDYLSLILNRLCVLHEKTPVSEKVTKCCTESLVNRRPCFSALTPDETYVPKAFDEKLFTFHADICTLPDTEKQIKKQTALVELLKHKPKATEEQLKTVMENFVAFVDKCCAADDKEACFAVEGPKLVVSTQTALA
Source text: intrinsic fluorescence quenching, double-log plot on bovine serum albumin (BSA)

[2] = target: T2, human serum albumin (HSA) (Homo sapiens, UniProt P02768); test: intrinsic fluorescence quenching, double-log plot; type: binding
T2 construct: gene ALB; 585 residues, 66,500 Da, single non-glycosylated chain
T2 sequence (P02768 25-609): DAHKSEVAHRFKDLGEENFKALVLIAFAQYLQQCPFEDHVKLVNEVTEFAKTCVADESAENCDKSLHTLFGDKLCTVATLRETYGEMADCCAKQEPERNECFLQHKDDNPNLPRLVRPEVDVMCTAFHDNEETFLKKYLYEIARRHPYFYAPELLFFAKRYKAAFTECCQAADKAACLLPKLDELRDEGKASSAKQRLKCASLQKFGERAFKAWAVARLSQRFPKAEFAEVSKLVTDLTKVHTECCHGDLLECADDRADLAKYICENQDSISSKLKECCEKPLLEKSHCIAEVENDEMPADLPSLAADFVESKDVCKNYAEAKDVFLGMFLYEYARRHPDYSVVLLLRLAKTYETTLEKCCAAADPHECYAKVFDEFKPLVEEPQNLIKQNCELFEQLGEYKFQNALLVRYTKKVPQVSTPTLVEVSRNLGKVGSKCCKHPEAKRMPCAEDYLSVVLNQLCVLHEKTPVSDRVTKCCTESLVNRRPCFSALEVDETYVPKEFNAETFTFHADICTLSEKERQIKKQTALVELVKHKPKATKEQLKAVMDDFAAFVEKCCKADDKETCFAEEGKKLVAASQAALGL
Source text: intrinsic fluorescence quenching, double-log plot on human serum albumin (HSA)

For `O=C1C[C@@H](c2ccc(O)cc2)Oc2cc(O)cc(O)c21` [compound 9, naringenin], the “BSA Affinity / logKa” value [1] was 6.982 log (L/mol) and the “HSA Affinity / logKa” value [2] was 6.493 log (L/mol).

For `O=c1cc(-c2ccc(O)cc2)oc2cc(O)cc(O)c12` [compound 8, apigenin], the “BSA Affinity / logKa” value ([1]; PBS pH 7.4, 300.15 K, ex 280 nm, em 341 nm, n = 0.870, double-log) was 7.086 log (L/mol) and the “HSA Affinity / logKa” value ([2]; PBS pH 7.4, 300.15 K, ex 280 nm, em 336 nm, n = 0.962, double-log) was 6.655 log (L/mol).

In the case of `O=c1c(O[C@@H]2O[C@H](CO)[C@H](O)[C@H](O)[C@H]2O)c(-c2ccc(O)c(O)c2)oc2cc(O)cc(O)c12` [compound 3, hyperoside], the “BSA Affinity / logKa” value ([1]; PBS pH 7.4, 300.15 K, ex 280 nm, em 341 nm, n = 0.950, double-log) is reported as 6.891 log (L/mol) and the “HSA Affinity / logKa” value ([2]; PBS pH 7.4, 300.15 K, ex 280 nm, em 336 nm, n = 0.960, double-log) is reported as 6.802 log (L/mol).

For `O=C1c2c(O)cc(O)cc2O[C@H](c2ccc(O)c(O)c2)[C@H]1O` [compound 5, taxifolin], the “BSA Affinity / logKa” value [1] was 7.067 log (L/mol) and the “HSA Affinity / logKa” value [2] was 6.748 log (L/mol).

In the case of `O=c1cc(-c2ccc(O)c(O)c2)oc2cc(O)cc(O)c12` [compound 6, luteolin], the “BSA Affinity / logKa” value ([1]; PBS pH 7.4, 300.15 K, ex 280 nm, em 341 nm, n = 0.923, double-log) is reported as 7.110 log (L/mol) and the “HSA Affinity / logKa” value ([2]; PBS pH 7.4, 300.15 K, ex 280 nm, em 336 nm, n = 0.904, double-log) is reported as 7.064 log (L/mol).

For `C[C@@H]1O[C@@H](OC[C@H]2O[C@@H](Oc3c(-c4ccc(O)c(O)c4)oc4cc(O)cc(O)c4c3=O)[C@H](O)[C@@H](O)[C@@H]2O)[C@H](O)[C@H](O)[C@H]1O` [compound 2, rutin], the “BSA Affinity / logKa” value ([1]; PBS pH 7.4, 300.15 K, ex 280 nm, em 341 nm, n = 0.962, double-log) was 6.686 log (L/mol) and the “HSA Affinity / logKa” value ([2]; PBS pH 7.4, 300.15 K, ex 280 nm, em 336 nm, n = 0.992, double-log) was 5.896 log (L/mol).

For `O=c1c(O)c(-c2ccc(O)c(O)c2)oc2cc(O)cc(O)c12` [compound 7, quercetin], the “BSA Affinity / logKa” value [1] was 7.299 log (L/mol) and the “HSA Affinity / logKa” value [2] was 7.089 log (L/mol).

With `O=c1c(O[C@@H]2O[C@H](CO)[C@@H](O)[C@H](O)[C@H]2O)c(-c2ccc(O)c(O)c2)oc2cc(O)cc(O)c12` [compound 4, isoquercitrin] the “BSA Affinity / logKa” value ([1]; PBS pH 7.4, 300.15 K, ex 280 nm, em 341 nm, n = 0.938, double-log) was 7.095 log (L/mol) and the “HSA Affinity / logKa” value ([2]; PBS pH 7.4, 300.15 K, ex 280 nm, em 336 nm, n = 0.936, double-log) was 6.584 log (L/mol).

`O=c1c(O[C@@H]2O[C@H](CO)[C@@H](O)[C@H](O)[C@H]2O)c(-c2ccc(O)cc2)oc2cc(O)cc(O)c12` [compound 1, astragalin] was tested, and the “BSA Affinity / logKa” value ([1]; PBS pH 7.4, 300.15 K, ex 280 nm, em 341 nm, n = 0.963, double-log) was 6.359 log (L/mol) and the “HSA Affinity / logKa” value ([2]; PBS pH 7.4, 300.15 K, ex 280 nm, em 336 nm, n = 0.994, double-log) was 6.234 log (L/mol).

In the case of `COc1cc(-c2oc3cc(O)cc(O)c3c(=O)c2O)ccc1O` [compound 11, isorhamnetin], the “BSA Affinity / logKa” value ([1]; PBS pH 7.4, 300.15 K, ex 280 nm, em 341 nm, n = 0.941, double-log) is reported as 6.828 log (L/mol) and the “HSA Affinity / logKa” value ([2]; PBS pH 7.4, 300.15 K, ex 280 nm, em 336 nm, n = 0.923, double-log) is reported as 6.798 log (L/mol).

For `O=c1c(O)c(-c2ccc(O)cc2)oc2cc(O)cc(O)c12` [compound 10, kaempferol], the “BSA Affinity / logKa” value ([1]; PBS pH 7.4, 300.15 K, ex 280 nm, em 341 nm, n = 0.911, double-log) was 7.106 log (L/mol) and the “HSA Affinity / logKa” value ([2]; PBS pH 7.4, 300.15 K, ex 280 nm, em 336 nm, n = 0.918, double-log) was 6.830 log (L/mol).
